Data taken from patent US6737383B1, “Herbicidal oxadiazolidines” (priority 1999, dated 2004).

Assays:
crabgrass = experiment: Test B pre/postemergence crabgrass; assay type: in vivo, Digitaria sanguinalis
Method in brief: (§1)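 Test chemicals in a non-phytotoxic solvent mixture with surfactant were sprayed preemergence onto planted seeds and postemergence onto plants 2 to 18 cm tall (1- to 4-leaf stage). After twelve to sixteen days in a greenhouse, injury was visually rated against untreated controls from 0 (no effect) to 10 (complete control).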

purple nutsedge = experiment: Test B pre/postemergence purple nutsedge; assay type: in vivo, Cyperus rotundus
Method in brief: as §1

bamyardgrass = experiment: Test B flood test barnyardgrass; assay type: in vivo, Echinochloa crus-galli
Method in brief: (§2)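 Plants were grown to the 2-leaf stage before treatment with test chemical, then held in a greenhouse for twelve to sixteen days. Injury was visually rated against untreated controls on a 0–10 scale, where 0 is no effect and 10 is complete control.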

velvetleaf = experiment: Test B pre/postemergence velvetleaf; assay type: in vivo, Abutilon theophrasti
Method in brief: as §1

sugar beet = experiment: Test B pre/postemergence sugar beet; assay type: in vivo, Beta vulgaris
Method in brief: as §1

wild oat = experiment: Test B pre/postemergence wild oat; assay type: in vivo, Avena fatua
Method in brief: as §1

blackgrass = experiment: Test B pre/postemergence blackgrass; assay type: in vivo, Alopecurus myosuroides
Method in brief: as §1

rape = experiment: Test B pre/postemergence rape; assay type: in vivo, Brassica napus
Method in brief: as §1

surinam grass = experiment: Test B pre/postemergence surinam grass; assay type: in vivo, Brachiaria decumbens
Method in brief: as §1

soybean = experiment: Test B pre/postemergence soybean; assay type: in vivo, Glycine max
Method in brief: as §1

smallflower flatsedge = experiment: Test B flood test smallflower flatsedge; assay type: in vivo, Cyperus difformis
Method in brief: as §2

morningglory = experiment: Test B pre/postemergence morningglory; assay type: in vivo, Ipomoea hederacea
Method in brief: as §1

giant foxtail = experiment: Test B pre/postemergence giant foxtail; assay type: in vivo, Setaria faberii
Method in brief: as §1

pigweed = experiment: Test B pre/postemergence pigweed; assay type: in vivo, Amaranthus retroflexus
Method in brief: as §1

cocklebur = experiment: Test B pre/postemergence cocklebur; assay type: in vivo, Xanthium strumarium
Method in brief: as §1

corn = experiment: Test B pre/postemergence corn; assay type: in vivo, Zea mays
Method in brief: as §1

[1] = Preemergence, Rate 62 g/ha, scale of 0 to 10 where 0 is no effect and 10 is complete control
[2] = Preemergence, Rate 500 g/ha, scale of 0 to 10 where 0 is no effect and 10 is complete control
[3] = Rate 62 g/ha, Postemergence, scale 0 to 10 (0 no effect, 10 complete control)
[4] = Rate 125 g/ha, Postemergence, scale of 0 to 10 where 0 is no effect and 10 is complete control
[5] = Rate 125 g/ha, Preemergence, scale of 0 to 10 where 0 is no effect and 10 is complete control
[6] = Rate 250 g/ha, Postemergence, scale of 0 to 10 where 0 is no effect and 10 is complete control
[7] = Rate 500 g/ha, Postemergence, scale 0 to 10, 0 no effect, 10 complete control
[8] = Preemergence, Rate 250 g/ha, scale of 0 to 10 where 0 is no effect and 10 is complete control
[9] = Rate 62 g/ha, headed Pre-emergence (flood test species), scale 0 to 10 (0 no effect, 10 complete control)
[10] = Rate 125 g/ha, Pre-emergence, flood test species, scale 0 to 10 where 0 is no effect and 10 is complete control
[11] = Rate 250 g/ha, Pre-emergence, flood-test species, scale 0 to 10, 0 is no effect, 10 is complete control
[12] = Rate 500 g/ha, Pre-emergence, flood test species, scale 0 to 10 (0 no effect, 10 complete control)

CC(C)N(C(=O)n1oc(=O)n(C2CCCC2)c1=O)c1ccccc1 [Compound 283]
Crabgrass plant response rating (crabgrass; [1]): 2
Plant response rating, Crabgrass (crabgrass; [2]): 7
Crabgrass plant response rating (crabgrass; [3]): 0
Crabgrass plant response rating (crabgrass; [4]): 0
Crabgrass plant response rating (crabgrass; [5]): 7
Plant response rating, Crabgrass (crabgrass; [6]): 1
Crabgrass plant response rating (crabgrass; [7]): 1
Nutsedge plant response rating (purple nutsedge; [1]): 0
Nutsedge plant response rating (purple nutsedge; [8]): 0
Plant response rating, Nutsedge (purple nutsedge; [2]): 0
Nutsedge plant response rating (purple nutsedge; [3]): 0
Nutsedge plant response rating (purple nutsedge; [4]): 0
Nutsedge plant response rating (purple nutsedge; [5]): 0
Plant response rating, Nutsedge (purple nutsedge; [6]): 0
Nutsedge plant response rating (purple nutsedge; [7]): 0
Barnyardgrass plant response rating (bamyardgrass; [9]): 0
Barnyardgrass plant response rating (bamyardgrass; [10]): 3
Barnyardgrass plant response rating (bamyardgrass; [11]): 6
Barnyardgrass plant response rating (bamyardgrass; [12]): 6
Velvetleaf plant response rating (velvetleaf; [1]): 0
Velvetleaf plant response rating (velvetleaf; [8]): 5
Plant response rating, Velvetleaf (velvetleaf; [2]): 7
Velvetleaf plant response rating (velvetleaf; [3]): 0
Velvetleaf plant response rating (velvetleaf; [4]): 0
Velvetleaf plant response rating (velvetleaf; [5]): 2
Plant response rating, Velvetleaf (velvetleaf; [6]): 1
Velvetleaf plant response rating (velvetleaf; [7]): 3
Sugarbeets plant response rating (sugar beet; [1]): 0
Sugarbeets plant response rating (sugar beet; [8]): 2
Plant response rating, Sugarbeets (sugar beet; [2]): 5
Sugarbeets plant response rating (sugar beet; [3]): 0
Sugarbeets plant response rating (sugar beet; [4]): 2
Sugarbeets plant response rating (sugar beet; [5]): 0
Plant response rating, Sugarbeets (sugar beet; [6]): 2
Sugarbeets plant response rating (sugar beet; [7]): 2
Wild oats plant response rating (wild oat; [1]): 0
Wild oats plant response rating (wild oat; [8]): 4
Plant response rating, Wild oats (wild oat; [2]): 7
Wild oats plant response rating (wild oat; [3]): 0
Wild oats plant response rating (wild oat; [4]): 0
Plant response rating, Wild oats (wild oat; [6]): 0
Wild oats plant response rating (wild oat; [7]): 0
Blackgrass plant response rating (blackgrass; [1]): 7
Blackgrass plant response rating (blackgrass; [8]): 9
Plant response rating, Blackgrass (blackgrass; [2]): 10
Blackgrass plant response rating (blackgrass; [3]): 2
Blackgrass plant response rating (blackgrass; [4]): 6
Blackgrass plant response rating (blackgrass; [5]): 8
Plant response rating, Blackgrass (blackgrass; [6]): 7
Blackgrass plant response rating (blackgrass; [7]): 7
Rape plant response rating (rape; [1]): 0
Rape plant response rating (rape; [8]): 2
Plant response rating, Rape (rape; [2]): 8
Rape plant response rating (rape; [3]): 2
Rape plant response rating (rape; [4]): 3
Plant response rating, Rape (rape; [6]): 4
Rape plant response rating (rape; [7]): 7
B. signalgrass plant response rating (surinam grass; [1]): 6
B. signalgrass plant response rating (surinam grass; [8]): 10
Plant response rating, B. signalgrass (surinam grass; [2]): 10
B. signalgrass plant response rating (surinam grass; [3]): 0
B. signalgrass plant response rating (surinam grass; [4]): 0
B. signalgrass plant response rating (surinam grass; [5]): 10
Plant response rating, B. signalgrass (surinam grass; [6]): 0
B. signalgrass plant response rating (surinam grass; [7]): 2
Soybean plant response rating (soybean; [1]): 0
Soybean plant response rating (soybean; [8]): 0
Plant response rating, Soybean (soybean; [2]): 0
Soybean plant response rating (soybean; [3]): 4
Soybean plant response rating (soybean; [4]): 4
Soybean plant response rating (soybean; [5]): 0
Plant response rating, Soybean (soybean; [6]): 5
Soybean plant response rating (soybean; [7]): 7
S. Flatsedge plant response rating (smallflower flatsedge; [9]): 0
S. Flatsedge plant response rating (smallflower flatsedge; [10]): 0
S. Flatsedge plant response rating (smallflower flatsedge; [11]): 0
S. Flatsedge plant response rating (smallflower flatsedge; [12]): 5
Morningglory plant response rating (morningglory; [1]): 0
Morningglory plant response rating (morningglory; [8]): 0
Plant response rating, Morningglory (morningglory; [2]): 0
Morningglory plant response rating (morningglory; [3]): 8
Morningglory plant response rating (morningglory; [4]): 9
Morningglory plant response rating (morningglory; [5]): 0
Plant response rating, Morningglory (morningglory; [6]): 9
Morningglory plant response rating (morningglory; [7]): 10
Giant foxtail plant response rating (giant foxtail; [1]): 8
Giant foxtail plant response rating (giant foxtail; [8]): 10
Plant response rating, Giant foxtail (giant foxtail; [2]): 10
Giant foxtail plant response rating (giant foxtail; [3]): 0
Giant foxtail plant response rating (giant foxtail; [4]): 3
Giant foxtail plant response rating (giant foxtail; [5]): 9
Plant response rating, Giant foxtail (giant foxtail; [6]): 4
Giant foxtail plant response rating (giant foxtail; [7]): 7
Redroot pigweed plant response rating (pigweed; [1]): 2
Redroot pigweed plant response rating (pigweed; [8]): 10
Plant response rating, Redroot pigweed (pigweed; [2]): 10
Redroot pigweed plant response rating (pigweed; [3]): 4
Redroot pigweed plant response rating (pigweed; [4]): 4
Redroot pigweed plant response rating (pigweed; [5]): 6
Plant response rating, Redroot pigweed (pigweed; [6]): 5
Redroot pigweed plant response rating (pigweed; [7]): 7
Cocklebur plant response rating (cocklebur; [1]): 0
Cocklebur plant response rating (cocklebur; [8]): 0
Plant response rating, Cocklebur (cocklebur; [2]): 0
Cocklebur plant response rating (cocklebur; [3]): 2
Cocklebur plant response rating (cocklebur; [4]): 2
Cocklebur plant response rating (cocklebur; [5]): 0
Plant response rating, Cocklebur (cocklebur; [6]): 2
Cocklebur plant response rating (cocklebur; [7]): 2
Corn plant response rating (corn; [1]): 0
Corn plant response rating (corn; [8]): 0
Plant response rating, Corn (corn; [2]): 0
Corn plant response rating (corn; [3]): 0
Corn plant response rating (corn; [4]): 0
Corn plant response rating (corn; [5]): 0
Plant response rating, Corn (corn; [6]): 0
Corn plant response rating (corn; [7]): 0
